pIC50: −log10 of the molar value.
Experiments:
MV-4-11 cells = assay: Assay of inhibiting proliferation of MV-4-11 in vitro (CellTiter-Glo); format: cell-based; details: Homo sapiens, MV4-11, 72 h, 3 days
Procedure: IMDM medium, fetal bovine serum, and penicillin/streptomycin antibiotics were purchased from Promega (Madison, Wis.). The MV-4-11 cell line was purchased from the Cell Bank of the Chinese Academy of Sciences. Envision Multi-Label Analyzer (PerkinElmer).
MV-4-11 cells were seeded in a white 96-well plate with 80 μL of cell suspension per well containing 10,000 MV-4-11 cells. The cell plate was cultured overnight in a carbon dioxide incubator.
The compounds to be tested were 5-fold serially diluted with a pipette to obtain eight concentrations, i.e., from 2 mmol/L to 26 nmol/L. The assay was carried out in duplicate. 78 μL of medium was added to the intermediate plate, and then 2 μL per well of the serially diluted compounds were transferred to the intermediate plate according to the corresponding position. After mixing, an amount of 20 μL per well was transferred to the cell plate. The cell plate was cultured in a carbon dioxide incubator for 3 days.
25 μL per well of Promega CellTiter-Glo reagent was added to the cell plate and incubated at room temperature for 10 minutes to stabilize the luminescence signal. A PerkinElmer Envision multi-label analyzer was used for reading.
The original data was converted into an inhibition rate, and the IC50 value can be obtained by four-parameter curve fitting.

[1] = test system: human biphenotypic B bone marrow mononuclear leukemia cell MV4-11 subcutaneous xenograft tumor; assay: Inhibition of MV4-11 subcutaneous xenograft tumor in vivo; design: species or system nude mice; details: for Average tumor volume Day 25 / Average tumor volume Day 35: then drug withdrawal; for Average tumor volume Day 0: baseline at start of dosing
Procedure: In this assay, the anti-tumor effect of the compounds was evaluated using a nude mice model of subcutaneous xenograft tumor of human biphenotypic B bone marrow mononuclear leukemia cell MV4-11.
Human biphenotypic B bone marrow mononuclear leukemia cell MV4-11 was cultured in vitro in suspension with a RPMI1640 medium supplemented with 10% fetal bovine serum, 100 U/mL penicillin and 100 μg/mL streptomycin in a 5% CO2 cell incubator at 37° C. Routine passaging was performed twice a week. Cells in the logarithmic growth phase were collected, counted and then used for inoculation.
10×10^6 MV4-11 cells were inoculated subcutaneously on the back of the right neck of each mouse, wherein the inoculation volume was 0.2 mL, and the cell suspension was PBS plus matrigel (volume ratio 1:1). The assay of efficacy in vivo was performed on the 13th day after the cell inoculation, at which time the average tumor volume reached 181 mm^3. The mice were randomly divided into groups with 6 mice in each group, and administration to the mice started.
The diameter of the tumor was measured with vernier calipers twice a week. The formula for calculating the tumor volume is: V=0.5a×b^2, where a and b represent the long and short diameters of the tumor, respectively.
After 14 days of administration, the administration was stopped, and the rebound of the tumor was observed.

[2] = test system: human acute myeloma MOLM-13 cell line subcutaneous xenograft; assay: Inhibition of Molm-13 subcutaneous xenograft tumor in vivo; design: species or system NOD/SCID female mice; details: for Average tumor volume Day 0: baseline
Procedure: The purpose of this assay is to evaluate the pharmacodynamics of the compounds in the NOD/SCID female mice model of human acute myeloma MOLM-13 cell line subcutaneous xenograft.
MOLM-13 cells were cultured in RPMI-1640 medium containing 10% fetal bovine serum. The MOLM-13 cells were collected in the exponential growth phase, and resuspended in PBS to a suitable concentration for subcutaneous tumor inoculation in nude mice.
The assay mice were inoculated with 5×10^6 MOLM-13 cells resuspended in 0.1 ml of PBS (0.1 ml per mouse) subcutaneously on the right back. Tumor growth was regularly observed. When the tumor grew to an average volume of 98 mm^3, the mice were randomly divided into groups and administered according to tumor size and body weight of the mice.
After the start of administration, the body weight and tumor size of the mice were measured three times a week. The formula for calculating the tumor volume is: tumor volume (mm^3)=½×(a×b^2) (where a represents the long diameter and b represents the short diameter).

[3] = 20 mg/kg oral once a day for 14 days
[4] = 5 mg/kg oral once a day for 14 days

| SMILES | pIC50 (MV-4-11 cells) | % Inhibition rate on day 14 ([1]; 20 mg/kg oral once a day) | Average tumor volume Day 14 ([1]; 20 mg/kg oral once a day) | Average tumor volume Day 25 [1, 3] | Average tumor volume Day 35 [1, 3] | Average tumor volume Day 0 ([1]; 20 mg/kg oral once a day group) | % Inhibition rate on day 14 ([1]; 5 mg/kg oral once a day) | Average tumor volume Day 14 ([1]; 5 mg/kg oral once a day) | Average tumor volume Day 25 [1, 4] | Average tumor volume Day 35 [1, 4] | Average tumor volume Day 0 ([1]; 5 mg/kg oral once a day group) | Average tumor volume Day 11 ([2]; 15 mg/kg oral once a day) | Average tumor volume Day 15 ([2]; 15 mg/kg oral once a day) | Average tumor volume Day 11 ([2]; 50 mg/kg oral once a day) | Average tumor volume Day 15 ([2]; 50 mg/kg oral once a day) | Average tumor volume Day 0 ([2]; 15 mg/kg oral once a day group) | Average tumor volume Day 0 ([2]; 50 mg/kg oral once a day group) |
| --- | --- | --- | --- | --- | --- | --- | --- | --- | --- | --- | --- | --- | --- | --- | --- | --- | --- |
| CCc1nc(C(N)=O)c(Nc2ccc(N3CCC4(CCN(C)CC4)CC3)c(OC)c2)nc1NC1CCOCC1 [Compound A] | 8.27 | 118% | 39 cubic millimeter | 258 cubic millimeter | 988 cubic millimeter | 181 cubic millimeter | – | – | – | – | – | – | – | – | – | – | – |
| CCc1nc(C(N)=O)c(Nc2ccc(N3CCC(N4CCN(C)CC4)CC3)c(OC)c2)nc1NC1CCOCC1 [Compound B] | 8.33 | – | – | – | – | – | 118% | 41 cubic millimeter | 320 cubic millimeter | 1279 cubic millimeter | 181 cubic millimeter | – | – | – | – | – | – |
| CCc1nc(C(N)=O)c(Nc2ccc(N3CCC4(CCN(C)CC4)CC3)c(C)c2)nc1NC1CCOCC1 [Compound of formula (I)] | – | – | – | – | – | – | – | – | – | – | – | 156.85 cubic millimeter | 223.09 cubic millimeter | 53.08 cubic millimeter | 0 cubic millimeter | 98.34 cubic millimeter | 98.05 cubic millimeter |
